Data: ChEMBL document CHEMBL3885881, “DrugMatrix”

Organism: Rattus norvegicus
Test: DrugMatrix - Regimen: Daily Repeat
Format: toxicity, organism-based, Sprague-Dawley
Set-up: regimen Daily Repeat, gender Male, age 6-8 weeks
Details: in vivo, po, route oral GAVAGE, […]; for ABSOLUTE BASOPHIL / ABSOLUTE EOSINOPHIL / ABSOLUTE LYMPHOCYTE / ABSOLUTE MONOCYTE / ABSOLUTE SEGMENTED NEUTROPHIL / BASOPHIL / EOSINOPHIL / ERYTHROCYTE COUNT / HEMATOCRIT / HEMOGLOBIN / LEUKOCYTE COUNT / LYMPHOCYTE / MEAN CORPUSCULAR HEMOGLOBIN / MEAN CORPUSCULAR HEMOGLOBIN CONCENTRATION / MEAN CORPUSCULAR VOLUME / MONOCYTE / NEUTROPHIL / NUCLEATED RED BLOOD CELLS / PLATELET COUNT: tissue Blood; for ALANINE AMINOTRANSFERASE / ALBUMIN / ALKALINE PHOSPHATASE / ASPARTATE AMINOTRANSFERASE / BLOOD UREA NITROGEN / CARBON DIOXIDE / CHLORIDE / CHOLESTEROL / CREATINE PHOSPHOKINASE / CREATININE / GLUCOSE / LACTATE DEHYDROGENASE / LIPASE / PHOSPHORUS / POTASSIUM / SODIUM / TOTAL BILIRUBIN / TOTAL PROTEIN / URIC ACID: tissue Plasma
[1] = 0 mg/kg, 72 h, dose level Control, time 3 day
[2] = 0 mg/kg, 120 h, dose level Control, time 5 day
[3] = 43 mg/kg, 72 h, dose level Low, time 3 day
[4] = 43 mg/kg, 120 h, dose level Low, time 5 day

SMILES: Clc1ccc(COC(Cn2ccnc2)c2ccc(Cl)cc2Cl)cc1 (configuration not stated) [ECONAZOLE]
- ABSOLUTE BASOPHIL [1]: 0 CELLS/uL
- ABSOLUTE EOSINOPHIL [1]: 0 CELLS/uL
- ABSOLUTE LYMPHOCYTE [1]: 7601 CELLS/uL
- ABSOLUTE MONOCYTE [1]: 354.33 CELLS/uL
- ABSOLUTE SEGMENTED NEUTROPHIL [1]: 744.67 CELLS/uL
- BASOPHIL [1]: 0%
- EOSINOPHIL [1]: 0%
- ERYTHROCYTE COUNT [1]: 5.03 x10E6/uL
- HEMATOCRIT [1]: 33.7%
- HEMOGLOBIN [1]: 13.43 G/DL
- LEUKOCYTE COUNT [1]: 8.7 x10E3/uL
- LYMPHOCYTE [1]: 86.33%
- MEAN CORPUSCULAR HEMOGLOBIN [1]: 26.7 pg
- MEAN CORPUSCULAR HEMOGLOBIN CONCENTRATION [1]: 39.83 G/DL
- MEAN CORPUSCULAR VOLUME [1]: 67 fL
- MONOCYTE [1]: 4.67%
- NEUTROPHIL [1]: 9%
- NUCLEATED RED BLOOD CELLS [1]: 0 /100WBC
- PLATELET COUNT [1]: 1151 x10E3/uL
- ALANINE AMINOTRANSFERASE [1]: 97.67 u/L
- ALBUMIN [1]: 4.07 G/DL
- ALKALINE PHOSPHATASE [1]: 607.67 u/L
- ASPARTATE AMINOTRANSFERASE [1]: 101 u/L
- BLOOD UREA NITROGEN [1]: 13.33 mg/dL
- CARBON DIOXIDE [1]: 36 mmol/L
- CHLORIDE [1]: 99.67 MEQ/L
- CHOLESTEROL [1]: 75.67 mg/dL
- CREATINE PHOSPHOKINASE [1]: 279.67 u/L
- CREATININE [1]: 0.16 mg/dL
- GLUCOSE [1]: 164 mg/dL
- LACTATE DEHYDROGENASE [1]: 115 u/L
- LIPASE [1]: 12.67 u/L
- PHOSPHORUS [1]: 8.77 mg/dL
- POTASSIUM [1]: 5.79 MEQ/L
- SODIUM [1]: 142.83 MEQ/L
- TOTAL BILIRUBIN [1]: 0.27 mg/dL
- TOTAL PROTEIN [1]: 5.8 G/DL
- URIC ACID [1]: 0.67 mg/dL
- ABSOLUTE BASOPHIL [2]: 0 CELLS/uL
- ABSOLUTE EOSINOPHIL [2]: 0 CELLS/uL
- ABSOLUTE LYMPHOCYTE [2]: 4426.33 CELLS/uL
- ABSOLUTE MONOCYTE [2]: 102.67 CELLS/uL
- ABSOLUTE SEGMENTED NEUTROPHIL [2]: 337.67 CELLS/uL
- BASOPHIL [2]: 0%
- EOSINOPHIL [2]: 0%
- ERYTHROCYTE COUNT [2]: 5.31 x10E6/uL
- HEMATOCRIT [2]: 32.5%
- HEMOGLOBIN [2]: 13.17 G/DL
- LEUKOCYTE COUNT [2]: 4.87 x10E3/uL
- LYMPHOCYTE [2]: 90.33%
- MEAN CORPUSCULAR HEMOGLOBIN [2]: 24.93 pg
- MEAN CORPUSCULAR HEMOGLOBIN CONCENTRATION [2]: 40.67 G/DL
- MEAN CORPUSCULAR VOLUME [2]: 61.33 fL
- MONOCYTE [2]: 2.33%
- NEUTROPHIL [2]: 7.33%
- NUCLEATED RED BLOOD CELLS [2]: 0.33 /100WBC
- PLATELET COUNT [2]: 848.33 x10E3/uL
- ALANINE AMINOTRANSFERASE [2]: 59.67 u/L
- ALBUMIN [2]: 3.87 G/DL
- ALKALINE PHOSPHATASE [2]: 452 u/L
- ASPARTATE AMINOTRANSFERASE [2]: 81.33 u/L
- BLOOD UREA NITROGEN [2]: 13.67 mg/dL
- CARBON DIOXIDE [2]: 26.33 mmol/L
- CHLORIDE [2]: 103.67 MEQ/L
- CHOLESTEROL [2]: 65.67 mg/dL
- CREATINE PHOSPHOKINASE [2]: 355.33 u/L
- CREATININE [2]: 0.14 mg/dL
- GLUCOSE [2]: 171.33 mg/dL
- LACTATE DEHYDROGENASE [2]: 118 u/L
- LIPASE [2]: 11.33 u/L
- PHOSPHORUS [2]: 11.13 mg/dL
- POTASSIUM [2]: 5.18 MEQ/L
- SODIUM [2]: 143.17 MEQ/L
- TOTAL BILIRUBIN [2]: 0.2 mg/dL
- TOTAL PROTEIN [2]: 5.87 G/DL
- URIC ACID [2]: 0.63 mg/dL
- ABSOLUTE BASOPHIL [3]: 0 CELLS/uL
- ABSOLUTE EOSINOPHIL [3]: 68.67 CELLS/uL
- ABSOLUTE LYMPHOCYTE [3]: 8555.33 CELLS/uL
- ABSOLUTE MONOCYTE [3]: 189.33 CELLS/uL
- ABSOLUTE SEGMENTED NEUTROPHIL [3]: 653.33 CELLS/uL
- BASOPHIL [3]: 0%
- EOSINOPHIL [3]: 0.67%
- ERYTHROCYTE COUNT [3]: 4.93 x10E6/uL
- HEMATOCRIT [3]: 32.1%
- HEMOGLOBIN [3]: 12.8 G/DL
- LEUKOCYTE COUNT [3]: 9.47 x10E3/uL
- LYMPHOCYTE [3]: 90.67%
- MEAN CORPUSCULAR HEMOGLOBIN [3]: 25.97 pg
- MEAN CORPUSCULAR HEMOGLOBIN CONCENTRATION [3]: 39.9 G/DL
- MEAN CORPUSCULAR VOLUME [3]: 65.1 fL
- MONOCYTE [3]: 2%
- NEUTROPHIL [3]: 6.67%
- NUCLEATED RED BLOOD CELLS [3]: 0 /100WBC
- PLATELET COUNT [3]: 1050.67 x10E3/uL
- ALANINE AMINOTRANSFERASE [3]: 100.33 u/L
- ALBUMIN [3]: 3.8 G/DL
- ALKALINE PHOSPHATASE [3]: 429 u/L
- ASPARTATE AMINOTRANSFERASE [3]: 104.67 u/L
- BLOOD UREA NITROGEN [3]: 11.33 mg/dL
- CARBON DIOXIDE [3]: 37.67 mmol/L
- CHLORIDE [3]: 107 MEQ/L
- CHOLESTEROL [3]: 72.33 mg/dL
- CREATINE PHOSPHOKINASE [3]: 331 u/L
- CREATININE [3]: 0.19 mg/dL
- GLUCOSE [3]: 156.67 mg/dL
- LACTATE DEHYDROGENASE [3]: 94 u/L
- LIPASE [3]: 10.33 u/L
- PHOSPHORUS [3]: 9.27 mg/dL
- POTASSIUM [3]: 5.1 MEQ/L
- SODIUM [3]: 138.9 MEQ/L
- TOTAL BILIRUBIN [3]: 0.13 mg/dL
- TOTAL PROTEIN [3]: 5.6 G/DL
- URIC ACID [3]: 0.57 mg/dL
- ABSOLUTE BASOPHIL [4]: 0 CELLS/uL
- ABSOLUTE EOSINOPHIL [4]: 31.33 CELLS/uL
- ABSOLUTE LYMPHOCYTE [4]: 7327.67 CELLS/uL
- ABSOLUTE MONOCYTE [4]: 294.67 CELLS/uL
- ABSOLUTE SEGMENTED NEUTROPHIL [4]: 379.67 CELLS/uL
- BASOPHIL [4]: 0%
- EOSINOPHIL [4]: 0.33%
- ERYTHROCYTE COUNT [4]: 5.33 x10E6/uL
- HEMATOCRIT [4]: 33.3%
- HEMOGLOBIN [4]: 13 G/DL
- LEUKOCYTE COUNT [4]: 8.03 x10E3/uL
- LYMPHOCYTE [4]: 91%
- MEAN CORPUSCULAR HEMOGLOBIN [4]: 24.4 pg
- MEAN CORPUSCULAR HEMOGLOBIN CONCENTRATION [4]: 39.07 G/DL
- MEAN CORPUSCULAR VOLUME [4]: 62.47 fL
- MONOCYTE [4]: 3.67%
- NEUTROPHIL [4]: 5%
- NUCLEATED RED BLOOD CELLS [4]: 0 /100WBC
- PLATELET COUNT [4]: 1117.67 x10E3/uL
- ALANINE AMINOTRANSFERASE [4]: 59 u/L
- ALBUMIN [4]: 3.97 G/DL
- ALKALINE PHOSPHATASE [4]: 377.67 u/L
- ASPARTATE AMINOTRANSFERASE [4]: 79 u/L
- BLOOD UREA NITROGEN [4]: 12.33 mg/dL
- CARBON DIOXIDE [4]: 28.67 mmol/L
- CHLORIDE [4]: 104.33 MEQ/L
- CHOLESTEROL [4]: 71.33 mg/dL
- CREATINE PHOSPHOKINASE [4]: 198.33 u/L
- CREATININE [4]: 0.22 mg/dL
- GLUCOSE [4]: 162 mg/dL
- LACTATE DEHYDROGENASE [4]: 63 u/L
- LIPASE [4]: 12.33 u/L
- PHOSPHORUS [4]: 10.33 mg/dL
- POTASSIUM [4]: 5.68 MEQ/L
- SODIUM [4]: 144.73 MEQ/L
- TOTAL BILIRUBIN [4]: 0.17 mg/dL
- TOTAL PROTEIN [4]: 5.93 G/DL
- URIC ACID [4]: 0.5 mg/dL
